Laboratory results from patent publication US8748461B2, “Metalloenzyme inhibitor compounds” (Viamet Pharmaceuticals, Inc., priority 2011, dated 2014).
≈ marks a conversion by molar mass, not a printed value.

What follows are molecules tested on Septoria tritici (ATCC 26517) (assay: Minimum Inhibitory Concentration (MIC) vs. Septoria tritici). Settings: Zymoseptoria tritici, ATCC26517, 168 h; 50% reduction in growth of S. tritici; 22° C., seven days; read-out: Septoria Rating (MIC).
Assay type: cell-based
Procedure: C. Minimum Inhibitory Concentration (MIC) vs. Septoria tritici Compounds were assessed for their ability to inhibit the growth of a common strain of the fungal plant pathogen Septoria tritici (ATCC 26517) using a procedure based on a Clinical and Laboratory Standards Institute (CLSI) microdilution assay protocol for filamentous fungi. Stock solutions of the test compounds and standards were prepared in DMSO at 6400 μg/mL. Each stock solution was used to prepare a 2-fold dilution series ranging from 16 to 0.016 μg/mL (total of 11 compound concentrations) in RPMI-1640 (Roswell Park Memorial Institute) medium containing 3-(N-morpholino)propanesulfonic acid (MOPS) buffer and 2% DMSO. A 100 μL aliquot of the dilutions was added to columns 1 (16 μg/mL compound) through 11 (0.016 μg/mL compound) of a 96-well microtiter plate. This format was replicated in a second row of the microtiter plate. Thus, each microtiter plate could include 11 concentrations of four test or control compounds replicated twice. A 100 μL aliquot of RPMI-1640/MOPS/2% DMSO medium was added to column 12 (no compound control) of the microtiter plate. A fresh culture of S. tritici was used to prepare a solution of approximately 5×10^4 colony-forming units per milliliter (cfu/mL) in RPMI/MOPS medium without DMSO. A 100 μL aliquot of this solution was added to all 96 wells in the microtiter plate. […] The assay plates were incubated at 22° C. for seven days in the dark without shaking. […] In each case of Table 3, the Septoria rating scale is as follows: […]

Row | Compound | MIC [µg/mL]
1 | OC(Cn1cnnn1)(c1ccc(F)cc1F)C(F)(F)c1ccc(OCc2ccc(Cl)cc2F)cn1 (stereo not shown) [Compound 1, 1-(5-(4-Chloro-2-fluorobenzyloxy)pyridin-2-yl)-2-(2,4-difluorophenyl)-1,1-difluoro-3-(1H-tetrazol-1-yl)propan-2-ol] | ≤ 0.5
2 | OC(Cn1cnnn1)(c1ccc(F)cc1F)C(F)(F)c1ccc(OCc2ccc(F)cc2F)cn1 (stereo not shown) [Compound 2, 1-(5-(2,4-Difluorobenzyloxy)pyridin-2-yl)-2-(2,4-difluorophenyl)-1,1-difluoro-3-(1H-tetrazol-1-yl)propan-2-ol] | ≤ 0.5
3 | OC(Cn1ncnn1)(c1ccc(F)cc1F)C(F)(F)c1ccc(OCC2CC2)cn1 (stereo not shown) [Compound 40, 1-(5-(Cyclopropylmethoxy)pyridin-2-yl)-2-(2,4-difluorophenyl)-1,1-difluoro-3-(2H-tetrazol-2-yl)propan-2-ol] | > 4
4 | OC(Cn1ccnn1)(c1ccc(F)cc1F)C(F)(F)c1ccc(OCc2cccc(F)c2F)cn1 (stereo not shown) [Compound 44, 1-(5-((2,3-Difluorobenzyl)oxy)pyridin-2-yl)-2-(2,4-difluorophenyl)-1,1-difluoro-3-(1H-1,2,3-triazol-1-yl)propan-2-ol] | 1.5 to 4 (≈ 3.03 to 8.09 µM)
5 | CC(Oc1ccc(C(F)(F)C(O)(Cn2ncnn2)c2ccc(F)cc2F)nc1)C(F)(F)F (stereo not shown) [Compound 48, 2-(2,4-Difluorophenyl)-1,1-difluoro-3-(2H-tetrazol-2-yl)-1-(5-((1,1,1-trifluoropropan-2-yl)oxy)pyridin-2-yl)propan-2-ol] | 0.5 to 1.5 (≈ 1.07 to 3.22 µM)
6 | N#Cc1ccc(COc2ccc(C(F)(F)C(O)(Cn3ncnn3)c3ccc(F)cc3F)nc2)nc1 (stereo not shown) [Compound 51, 6-(((6-(2-(2,4-Difluorophenyl)-1,1-difluoro-2-hydroxy-3-(2H-tetrazol-2-yl)propyl)pyridin-3-yl)oxy)methyl)nicotinonitrile] | > 4
7 | N#Cc1cccc(COc2ccc(C(F)(F)C(O)(Cn3ncnn3)c3ccc(F)cc3F)nc2)c1 (stereo not shown) [Compound 53, 3-(((6-(2-(2,4-Difluorophenyl)-1,1-difluoro-2-hydroxy-3-(2H-tetrazol-2-yl)propyl)pyridin-3-yl)oxy)methyl)benzonitrile] | > 4
8 | N#Cc1ccc(COc2ccc(C(F)(F)C(O)(Cn3ncnn3)c3ccc(Cl)cc3F)nc2)cc1 (stereo not shown) [Compound 56, 4-(((6-(2-(4-Chloro-2-fluorophenyl)-1,1-difluoro-2-hydroxy-3-(2H-tetrazol-2-yl)propyl)pyridin-3-yl)oxy)methyl)benzonitrile] | 1.5 to 4 (≈ 2.99 to 7.99 µM)
9 | N#Cc1ccc(COc2ccc(C(F)(F)C(O)(Cn3ncnn3)c3ccc(F)cc3F)nc2)c(F)c1 (stereo not shown) [Compound 58, 4-(((6-(2-(2,4-Difluorophenyl)-1,1-difluoro-2-hydroxy-3-(2H-tetrazol-2-yl)propyl)pyridin-3-yl)oxy)methyl)-3-fluorobenzonitrile] | 1.5 to 4 (≈ 2.99 to 7.96 µM)
10 | OC(Cn1cnnn1)(c1ccc(F)cc1F)C(F)(F)c1ccc(OCc2ncc(F)cc2F)cn1 (stereo not shown) [Compound 60, 2-(2,4-Difluorophenyl)-1-(5-((3,5-difluoropyridin-2-yl)methoxy)pyridin-2-yl)-1,1-difluoro-3-(1H-tetrazol-1-yl)propan-2-ol] | 1.5 to 4 (≈ 3.02 to 8.06 µM)
11 | N#Cc1ccc(COc2ccc(C(F)(F)C(O)(Cn3ncnn3)c3ccc(Cl)cc3F)nc2)nc1 (stereo not shown) [Compound 62, 6-(((6-(2-(4-Chloro-2-fluorophenyl)-1,1-difluoro-2-hydroxy-3-(2H-tetrazol-2-yl)propyl)pyridin-3-yl)oxy)methyl)nicotinonitrile] | 1.5 to 4 (≈ 2.99 to 7.97 µM)
12 | CC#CCOc1ccc(C(F)(F)C(O)(Cn2cnnn2)c2ccc(Cl)cc2F)nc1 (stereo not shown) [Compound 63, 1-(5-(But-2-yn-1-yloxy)pyridin-2-yl)-2-(4-chloro-2-fluorophenyl)-1,1-difluoro-3-(1H-tetrazol-1-yl)propan-2-ol] | ≤ 0.5
13 | CC#CCOc1ccc(C(F)(F)C(O)(Cn2ncnn2)c2ccc(Cl)cc2F)nc1 (stereo not shown) [Compound 64, 1-(5-(But-2-yn-1-yloxy)pyridin-2-yl)-2-(4-chloro-2-fluorophenyl)-1,1-difluoro-3-(2H-tetrazol-2-yl)propan-2-ol] | > 4
14 | N#Cc1cc(COc2ccc(C(F)(F)C(O)(Cn3ncnn3)c3ccc(F)cc3F)nc2)ccc1F (stereo not shown) [Compound 66, 5-(((6-(2-(2,4-Difluorophenyl)-1,1-difluoro-2-hydroxy-3-(2H-tetrazol-2-yl)propyl)pyridin-3-yl)oxy)methyl)-2-fluorobenzonitrile] | > 4
15 | N#Cc1cccc(COc2ccc(C(F)(F)C(O)(Cn3ncnn3)c3ccc(F)cc3F)nc2)c1F (stereo not shown) [Compound 68, 3-(((6-(2-(2,4-Difluorophenyl)-1,1-difluoro-2-hydroxy-3-(2H-tetrazol-2-yl)propyl)pyridin-3-yl)oxy)methyl)-2-fluorobenzonitrile] | 1.5 to 4 (≈ 2.99 to 7.96 µM)
16 | CC(C)COc1ccc(C(F)(F)C(O)(Cn2ncnn2)c2ccc(Cl)cc2F)nc1 (stereo not shown) [Compound 70, 2-(4-Chloro-2-fluorophenyl)-1,1-difluoro-1-(5-isobutoxypyridin-2-yl)-3-(2H-tetrazol-2-yl)propan-2-ol] | > 4
17 | OC(Cn1ncnn1)(c1ccc(Cl)cc1F)C(F)(F)c1ccc(OCC(F)(F)F)cn1 (stereo not shown) [Compound 72, 2-(4-Chloro-2-fluorophenyl)-1,1-difluoro-3-(2H-tetrazol-2-yl)-1-(5-(2,2,2-trifluoroethoxy)pyridin-2-yl)propan-2-ol] | > 4
18 | N#Cc1ccc(COc2ccc(C(F)(F)C(O)(Cn3ncnn3)c3ccc(F)cc3F)nc2)s1 (stereo not shown) [Compound 74, 5-(((6-(2-(2,4-Difluorophenyl)-1,1-difluoro-2-hydroxy-3-(2H-tetrazol-2-yl)propyl)pyridin-3-yl)oxy)methyl)thiophene-2-carbonitrile] | > 4
19 | N#Cc1ccc(Oc2ccc(C(F)(F)C(O)(Cn3ncnn3)c3ccc(Cl)cc3F)nc2)cc1 (stereo not shown) [Compound 80, 4-((6-(2-(4-Chloro-2-fluorophenyl)-1,1-difluoro-2-hydroxy-3-(2H-tetrazol-2-yl)propyl)pyridin-3-yl)oxy)benzonitrile] | 1.5 to 4 (≈ 3.08 to 8.22 µM)
20 | N#Cc1ccc(Oc2ccc(C(F)(F)C(O)(Cn3ncnn3)c3ccc(Cl)cc3F)nc2)cc1F (stereo not shown) [Compound 82, 4-((6-(2-(4-Chloro-2-fluorophenyl)-1,1-difluoro-2-hydroxy-3-(2H-tetrazol-2-yl)propyl)pyridin-3-yl)oxy)-2-fluorobenzonitrile] | > 4
21 | N#Cc1ccc(Oc2ccc(C(F)(F)C(O)(Cn3ncnn3)c3ccc(F)cc3F)nc2)c(F)c1 (stereo not shown) [Compound 90, 4-((6-(2-(2,4-Difluorophenyl)-1,1-difluoro-2-hydroxy-3-(2H-tetrazol-2-yl)propyl)pyridin-3-yl)oxy)-3-fluorobenzonitrile] | 1.5 to 4 (≈ 3.07 to 8.19 µM)
22 | OC(Cn1cnnn1)(c1ccc(F)cc1F)C(F)(F)c1ccc(Oc2ccc3ccccc3n2)cn1 (stereo not shown) [Compound 108, 2-(2,4-difluorophenyl)-1,1-difluoro-1-(5-(quinolin-2-yloxy)pyridin-2-yl)-3-(1H-tetrazol-1-yl)propan-2-ol] | ≤ 0.5
23 | OC(Cn1cnnn1)(c1ccc(F)cc1F)C(F)(F)c1ccc(Oc2nc3cc(Cl)ccc3s2)cn1 (stereo not shown) [Compound 109, 1-(5-((5-chlorobenzo[d]thiazol-2-yl)oxy)pyridin-2-yl)-2-(2,4-difluorophenyl)-1,1-difluoro-3-(1H-tetrazol-1-yl)propan-2-ol] | ≤ 0.5
24 | OC(Cn1cnnn1)(c1ccc(F)cc1F)C(F)(F)c1ccc(Oc2nc3ccc(Cl)cc3s2)cn1 (stereo not shown) [Compound 110, 1-(5-((6-chlorobenzo[d]thiazol-2-yl)oxy)pyridin-2-yl)-2-(2,4-difluorophenyl)-1,1-difluoro-3-(1H-tetrazol-1-yl)propan-2-ol] | ≤ 0.5
25 | OC(Cn1cnnn1)(c1ccc(F)cc1F)C(F)(F)c1ccc(Oc2ccc(C(F)(F)F)nc2)cn1 (stereo not shown) [Compound 111, 2-(2,4-difluorophenyl)-1,1-difluoro-3-(1H-tetrazol-1-yl)-1-(5-((6-(trifluoromethyl)pyridin-3-yl)oxy)pyridin-2-yl)propan-2-ol] | ≤ 0.5
26 | N#Cc1ccc(Oc2ccc(C(F)(F)C(O)(Cn3cnnn3)c3ccc(F)cc3F)nc2)cn1 (stereo not shown) [Compound 112, 5-((6-(2-(2,4-difluorophenyl)-1,1-difluoro-2-hydroxy-3-(1H-tetrazol-1-yl)propyl)pyridin-3-yl)oxy)picolinonitrile] | ≤ 0.5

Each molecule was assayed on Puccinia recondita tritici = Puccinia triticina (assay: Fungicidal activity vs. leaf rust on wheat plants). Settings: 50 ppm spray on wheat (Yuma), inoculated the following day, evaluated 7-9 days later; read-out: Puccinia Rating (% Disease Control @ 50 ppm).
Assay type: in vivo
From the text: D. Evaluation of Fungicidal Activity Vs. Leaf Rust (Causal Agent Puccinia recondita Tritici=Puccinia triticina; Bayer code PUCCRT). […] Each pot contained 3-8 seedlings. These plants were sprayed until wet with the formulated test compounds. The compounds were formulated at 50 ppm in 10 vol. % acetone plus 90 vol. % Triton X water (deionized water 99.99 wt %+0.01 wt % Triton X100), giving a “formulated test compound.” Formulated test compounds were applied to plants using a turn table sprayer fitted with two opposing air atomization nozzles which delivered approximately 1500 L/ha of spray volume. On the following day, the leaves were inoculated with an aqueous spore suspension of Puccinia recondita tritici and the plants were kept in high humidity overnight to permit spores to germinate and infect the leaf. The plants were then transferred to a greenhouse until disease developed on untreated control plants. Disease severity was evaluated 7-9 days later, depending on the speed of disease development. In each case of Table 3, the Puccinia rating scale is as follows: […]

Row | Compound | pest or weed control at 50 ppm [%]
27 | OC(Cn1cnnn1)(c1ccc(F)cc1F)C(F)(F)c1ccc(OCc2ccc(Cl)cc2F)cn1 (stereo not shown) [Compound 1, 1-(5-(4-Chloro-2-fluorobenzyloxy)pyridin-2-yl)-2-(2,4-difluorophenyl)-1,1-difluoro-3-(1H-tetrazol-1-yl)propan-2-ol] | 80 to 100
28 | OC(Cn1cnnn1)(c1ccc(F)cc1F)C(F)(F)c1ccc(OCc2ccc(F)cc2F)cn1 (stereo not shown) [Compound 2, 1-(5-(2,4-Difluorobenzyloxy)pyridin-2-yl)-2-(2,4-difluorophenyl)-1,1-difluoro-3-(1H-tetrazol-1-yl)propan-2-ol] | 80 to 100
